ChEMBL document CHEMBL1201862, “PubChem BioAssay data set” (2004)
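Step 1: Grow cells in 96-well plates. Step 2: Expose to compound for 48 hours at 5 concentrations. Step 3: Interpolate endpoints linearly; if unreached, use highest concentration. GI50 is the concentration that inhibits growth by half.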 The source made the active and inactive calls. Rule as the data show it: active = GI50 up to about 1.1 µM and inactive = higher.

Legend:
Assay in all cases: NCI anticancer screen, dose series, 48 h
[1] = test system: MCF7
[2] = test system: 786-0
[3] = test system: UO-31
[4] = test system: COLO 205
[5] = test system: HCT-116
[6] = test system: UACC-257
[7] = test system: HOP-92
[8] = test system: PC-3
[9] = test system: MOLT-4
[10] = test system: HT-29
[11] = test system: OVCAR-4
[12] = test system: NCI/ADR-RES
[13] = test system: SNB-19
[14] = test system: CAKI-1
[15] = test system: IGROV-1
[16] = test system: UACC-62
[17] = test system: HCC 2998
[18] = test system: SF-539
[19] = test system: CCRF-CEM
[20] = test system: SNB-75

Row | Structure (SMILES) | GI50 [1] | GI50 [2] | GI50 [3] | GI50 [4] | GI50 [5] | GI50 [6] | GI50 [7] | GI50 [8] | GI50 [9] | GI50 [10] | GI50 [11] | GI50 [12] | GI50 [13] | GI50 [14] | GI50 [15] | GI50 [16] | GI50 [17] | GI50 [18] | GI50 [19] | GI50 [20]
1 | O=P(OCc1ccccc1)(OCc1ccccc1)C(O)/C=C/c1ccccc1 (centres undefined) | 27.6 µM (inactive) | 17.7 µM (inactive) | 26.6 µM (inactive) | 21.3 µM (inactive) | 17.7 µM (inactive) | 17 µM (inactive) | 19.4 µM (inactive) | 28 µM (inactive) | 21.6 µM (inactive) | 21.3 µM (inactive) | 21.4 µM (inactive) | 26.5 µM (inactive) | 23 µM (inactive) | 35.7 µM (inactive) | 19.6 µM (inactive) | 15.8 µM (inactive) |  |  |  | 
2 | COc1ccc(C(SCCO)(c2ccccc2)c2ccccc2)cc1 | 10.5 µM (inactive) | 12.5 µM (inactive) | 14.9 µM (inactive) | 14 µM (inactive) | 10.9 µM (inactive) | 17.4 µM (inactive) | 11 µM (inactive) | 11.9 µM (inactive) | 15.7 µM (inactive) | 14.5 µM (inactive) | 15.6 µM (inactive) | 14.8 µM (inactive) | 15.7 µM (inactive) | 15.5 µM (inactive) |  | 14.3 µM (inactive) | 16.4 µM (inactive) | 15.6 µM (inactive) | 15.5 µM (inactive) | 12.2 µM (inactive)
3 | O=C1c2ccccc2CN1c1ccc(O)cc1 | > 100 µM (inactive) | > 100 µM (inactive) |  | > 100 µM (inactive) | > 100 µM (inactive) | > 100 µM (inactive) | > 100 µM (inactive) | > 100 µM (inactive) | > 100 µM (inactive) | > 100 µM (inactive) | > 100 µM (inactive) | > 100 µM (inactive) | > 100 µM (inactive) | > 100 µM (inactive) | > 100 µM (inactive) | > 100 µM (inactive) | > 100 µM (inactive) | > 100 µM (inactive) | > 100 µM (inactive) | 
4 | CCN(CC)c1nc(NC2CCCCC2)c2nc(N(CC)CC)nc(NC3CCCCC3)c2n1 | > 100 µM (inactive) | > 100 µM (inactive) |  |  | > 100 µM (inactive) |  | 38.7 µM (inactive) | > 100 µM (inactive) | > 100 µM (inactive) | > 100 µM (inactive) |  | > 100 µM (inactive) | > 100 µM (inactive) |  | > 100 µM (inactive) | > 100 µM (inactive) | > 100 µM (inactive) | 29.5 µM (inactive) | > 100 µM (inactive) | 
5 | Cc1cc(-c2nc3c(O)cccc3s2)ccc1N | 13 µM (inactive) | 29.3 µM (inactive) | 15.8 µM (inactive) | 38.7 µM (inactive) | 20.4 µM (inactive) | 20.3 µM (inactive) | 18.8 µM (inactive) | 21.2 µM (inactive) | 25.4 µM (inactive) | 21.8 µM (inactive) |  | 19.9 µM (inactive) | 15.3 µM (inactive) | 21.3 µM (inactive) | 17 µM (inactive) | 12.2 µM (inactive) | 32.8 µM (inactive) | 47.9 µM (inactive) | 27.3 µM (inactive) | 83.6 µM (inactive)
6 | COc1ccc2nc3n(c2c1)C(c1c(Cl)cccc1Cl)SC3 (centres undefined) | > 100 µM (inactive) | > 100 µM (inactive) | > 100 µM (inactive) | > 100 µM (inactive) | > 100 µM (inactive) | > 100 µM (inactive) | > 100 µM (inactive) | > 100 µM (inactive) | > 100 µM (inactive) |  | 24.7 µM (inactive) | > 100 µM (inactive) | > 100 µM (inactive) | > 100 µM (inactive) | > 100 µM (inactive) | > 100 µM (inactive) | > 100 µM (inactive) |  | > 100 µM (inactive) | > 100 µM (inactive)
7 | CC1(C(O)c2ccccc2)CN(C(C)(C)C)C(=O)/C1=C\Sc1ccccc1 (centres undefined) | 33.7 µM (inactive) | 46 µM (inactive) | 29.7 µM (inactive) | 20.9 µM (inactive) | 25.4 µM (inactive) | 24.9 µM (inactive) | 1.88 µM (inactive) | 17.3 µM (inactive) | 19.2 µM (inactive) | 21.1 µM (inactive) | 27.4 µM (inactive) | 35.6 µM (inactive) | > 100 µM (inactive) | > 100 µM (inactive) | 33.3 µM (inactive) | > 100 µM (inactive) | 94.2 µM (inactive) | > 100 µM (inactive) | 23.9 µM (inactive) | 
8 | COc1cc2c(cc1OCCCN1CCOCC1)N=C[C@@H]1CCCN1C2=O | 7.24 µM (inactive) | 4.16 µM (inactive) | 11.5 µM (inactive) | 1.87 µM (inactive) | 12.8 µM (inactive) | 24.6 µM (inactive) | 2.37 µM (inactive) | 18.6 µM (inactive) | 4.91 µM (inactive) | 8.79 µM (inactive) | 13.3 µM (inactive) | 35 µM (inactive) | 18.8 µM (inactive) | 5.82 µM (inactive) |  | 12.8 µM (inactive) |  | 4.7 µM (inactive) | 2.75 µM (inactive) | 
9 | CCOC(=O)C1(Cc2ccccc2)Cc2ccccc2C1=O (centres undefined) | 33.8 µM (inactive) | 32.5 µM (inactive) | 14.6 µM (inactive) | 19.6 µM (inactive) | 27.4 µM (inactive) | > 10 µM (inactive) | 16.5 µM (inactive) | 17.6 µM (inactive) | 19.6 µM (inactive) | 23.6 µM (inactive) | 18.7 µM (inactive) | 21.9 µM (inactive) |  |  | 35.2 µM (inactive) | 20.8 µM (inactive) | 34.4 µM (inactive) | 35.1 µM (inactive) | 27.8 µM (inactive) | 25.4 µM (inactive)
10 | CC(=O)c1ccc2c3c1[C@H]1O[C@H]1c1cccc(c1-3)[C@@H]1O[C@H]21 | 2.34 µM (inactive) | 2 µM (inactive) | 1.69 µM (inactive) | 1.71 µM (inactive) | 1.74 µM (inactive) | 2.04 µM (inactive) | 1.57 µM (inactive) | 2.47 µM (inactive) | 3.06 µM (inactive) | 2.3 µM (inactive) | 1.67 µM (inactive) | 1.98 µM (inactive) | 2.98 µM (inactive) | 1.29 µM (inactive) | 0.112 µM (active) | 2.01 µM (inactive) |  |  | 1.61 µM (inactive) | 1.93 µM (inactive)
11 | CN(C)CCCNc1ncnc2c1ncn2C1OC(CO)C(O)C1O (centres undefined) | > 100 µM (inactive) | > 100 µM (inactive) | > 100 µM (inactive) | > 100 µM (inactive) | > 100 µM (inactive) | > 100 µM (inactive) | > 100 µM (inactive) | > 100 µM (inactive) | 54.8 µM (inactive) | > 100 µM (inactive) | > 100 µM (inactive) | > 100 µM (inactive) | > 100 µM (inactive) | > 100 µM (inactive) | 93.5 µM (inactive) | > 100 µM (inactive) | > 100 µM (inactive) | > 100 µM (inactive) | > 100 µM (inactive) | 
12 | COc1cc(/C=C2\Cc3cc(OC)c(OC)cc3C2=O)cc(OC)c1 | > 86.5 µM (inactive) | 19.2 µM (inactive) | > 100 µM (inactive) | > 46.7 µM (inactive) | 21 µM (inactive) | > 87.3 µM (inactive) | 22.8 µM (inactive) | > 79.1 µM (inactive) | > 100 µM (inactive) | > 100 µM (inactive) | > 45.4 µM (inactive) | 0.904 µM (active) | 25.8 µM (inactive) | > 46.8 µM (inactive) | 5.93 µM (inactive) | 14.2 µM (inactive) |  | 13.1 µM (inactive) | > 100 µM (inactive) | 9.53 µM (inactive)
13 | Cc1cn(C2C=CC(COP(=O)(OCc3ccc([N+](=O)[O-])o3)N(C)CCCCCl)O2)c(=O)[nH]c1=O (centres undefined) | 4.99 µM (inactive) | 10.9 µM (inactive) | 16.7 µM (inactive) | 2.4 µM (inactive) | 8.65 µM (inactive) | 5.55 µM (inactive) | 1.95 µM (inactive) | 12.8 µM (inactive) | 10.1 µM (inactive) | 11.7 µM (inactive) | 4.31 µM (inactive) | 33.8 µM (inactive) | 6.58 µM (inactive) | 16 µM (inactive) | 3.03 µM (inactive) | 4.56 µM (inactive) |  | 3.72 µM (inactive) | 5.43 µM (inactive) | 1.58 µM (inactive)
14 | O=C(C/N=C(\CN(c1ccccc1)c1ccccc1)Oc1ccc(Cl)cc1Cl)n1ccnc1 | > 100 µM (inactive) | > 100 µM (inactive) | > 100 µM (inactive) | > 100 µM (inactive) | > 100 µM (inactive) | > 100 µM (inactive) | 63 µM (inactive) | > 100 µM (inactive) | > 100 µM (inactive) | > 100 µM (inactive) | > 100 µM (inactive) | > 100 µM (inactive) | > 100 µM (inactive) |  | > 100 µM (inactive) | > 100 µM (inactive) |  | > 100 µM (inactive) | > 100 µM (inactive) | > 100 µM (inactive)
15 | O=C(N/N=C(COc1ccc(Cl)cc1)\N=C\c1ccncc1)c1ccncc1 | > 100 µM (inactive) | > 100 µM (inactive) |  | > 100 µM (inactive) | > 100 µM (inactive) | > 100 µM (inactive) | 43.3 µM (inactive) | > 100 µM (inactive) | > 100 µM (inactive) | > 100 µM (inactive) | > 100 µM (inactive) | > 100 µM (inactive) | > 100 µM (inactive) | > 100 µM (inactive) | > 100 µM (inactive) | > 100 µM (inactive) | > 100 µM (inactive) | > 100 µM (inactive) | > 100 µM (inactive) | 
